# Experimental data taken from patent US11591323B2, “Muscarinic agonists as non-steroidal and non-opioid analgesics and methods of use thereof” (Barry University, priority 2019, dated 2023).
# Like-named read-outs stand apart in the source and are kept apart here.
# How the values were obtained:
# Design in all cases: host or cells: CHO cells, stably transfected
# M1 muscarinic receptor [1] = molecular target: T1, M1 muscarinic receptor (Homo sapiens, UniProt P11229); assay: [3H]NMS competition binding, M1 CHO membranes; settings: competition with 1 nM [3H]NMS; read-out: Inhibition constants (Ki) as negative logarithms, M1 (converted)
# T1 sequence (P11229 1-460): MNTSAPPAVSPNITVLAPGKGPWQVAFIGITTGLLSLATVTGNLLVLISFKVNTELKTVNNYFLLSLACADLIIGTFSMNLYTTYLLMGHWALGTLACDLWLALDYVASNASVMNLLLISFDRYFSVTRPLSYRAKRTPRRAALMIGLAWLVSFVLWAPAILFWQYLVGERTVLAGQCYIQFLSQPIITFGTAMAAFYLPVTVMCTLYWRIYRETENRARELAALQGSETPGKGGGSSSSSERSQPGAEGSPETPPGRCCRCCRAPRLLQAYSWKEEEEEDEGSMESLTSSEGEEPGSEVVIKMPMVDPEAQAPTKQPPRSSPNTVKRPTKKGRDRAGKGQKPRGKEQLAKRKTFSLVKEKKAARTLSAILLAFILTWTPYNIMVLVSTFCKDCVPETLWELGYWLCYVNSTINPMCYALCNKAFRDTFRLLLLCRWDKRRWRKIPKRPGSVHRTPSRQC
# M2 muscarinic receptor [2] = molecular target: T2, M2 muscarinic receptor (Homo sapiens, UniProt P08172); assay: [3H]NMS competition binding, M2 CHO membranes
# T2 sequence (P08172 1-466): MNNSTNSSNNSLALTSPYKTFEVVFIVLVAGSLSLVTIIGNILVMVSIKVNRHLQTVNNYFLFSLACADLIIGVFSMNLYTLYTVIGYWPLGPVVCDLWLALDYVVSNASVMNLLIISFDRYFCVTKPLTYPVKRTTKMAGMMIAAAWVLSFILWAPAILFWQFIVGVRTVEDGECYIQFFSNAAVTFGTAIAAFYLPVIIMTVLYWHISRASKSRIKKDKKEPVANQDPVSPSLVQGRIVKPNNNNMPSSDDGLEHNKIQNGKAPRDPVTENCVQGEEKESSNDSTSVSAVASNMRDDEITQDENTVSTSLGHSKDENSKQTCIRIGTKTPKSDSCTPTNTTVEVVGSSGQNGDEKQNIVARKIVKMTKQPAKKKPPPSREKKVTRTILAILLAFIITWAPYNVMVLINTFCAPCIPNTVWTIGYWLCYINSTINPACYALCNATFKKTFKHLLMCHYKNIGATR
# M1 muscarinic receptor [3] = molecular target: T1, M1 muscarinic receptor; assay: accumulation of inositol phosphates IPX, M1 CHO cells (M1Gq); assay type: cell-based; settings: for E′MAX / τ / Kd / EC50: M1 (↑IPX), preferential response, Table 7; for τ: operational efficacy; for Kd: operational model, read-out: pKA (converted); for EC50: read-out: pEC50 (converted)
# M2 muscarinic receptor [4] = molecular target: T2, M2 muscarinic receptor; assay: inhibition of forskolin-stimulated cAMP, M2 CHO cells (M2Gi); assay type: cell-based; settings: for Emax: CHO; for τ: operational efficacy; for RAi: relative to carbachol; for RAi / Δlog(τ/KA): Tables 2, 3, 7; for Δlog(τ/KA): to carbachol
# M3 muscarinic receptor = M3 muscarinic receptor (Homo sapiens, UniProt P20309); assay: accumulation of IPX, M3 CHO cells (M3Gq); assay type: cell-based; settings: for E′MAX / τ / Kd / EC50: M3 (↑IPX), preferential response, Table 7; for τ: operational efficacy; for Kd: operational model, read-out: pKA (converted); for EC50: read-out: pEC50 (converted)
# M3 muscarinic receptor, sequence (P20309 whole entry): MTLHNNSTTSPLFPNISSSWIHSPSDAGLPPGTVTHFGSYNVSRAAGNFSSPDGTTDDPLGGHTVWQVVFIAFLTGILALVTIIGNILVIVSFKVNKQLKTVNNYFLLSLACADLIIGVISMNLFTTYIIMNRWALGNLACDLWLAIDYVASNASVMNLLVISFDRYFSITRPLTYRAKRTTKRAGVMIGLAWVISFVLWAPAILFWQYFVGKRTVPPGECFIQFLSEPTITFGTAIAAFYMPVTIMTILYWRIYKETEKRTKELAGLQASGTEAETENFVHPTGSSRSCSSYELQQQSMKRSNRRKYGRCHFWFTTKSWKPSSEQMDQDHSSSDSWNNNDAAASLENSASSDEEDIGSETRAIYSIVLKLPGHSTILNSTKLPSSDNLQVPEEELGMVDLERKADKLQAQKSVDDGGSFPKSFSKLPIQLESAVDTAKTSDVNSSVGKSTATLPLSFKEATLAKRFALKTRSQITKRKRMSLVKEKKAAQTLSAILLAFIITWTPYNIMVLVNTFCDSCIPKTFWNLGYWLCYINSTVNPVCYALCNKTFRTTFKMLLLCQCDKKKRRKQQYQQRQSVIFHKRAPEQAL
# M4 muscarinic receptor = molecular target: T3, M4 muscarinic receptor (Homo sapiens, UniProt P08173); assay: inhibition of forskolin-stimulated cAMP, M4 CHO cells (M4Gi); assay type: cell-based; settings: for Emax: CHO; for τ: operational efficacy; for RAi: relative to carbachol; for RAi / Δlog(τ/KA): Tables 2, 3, 7; for Δlog(τ/KA): to carbachol
# T3 sequence (P08173 1-479): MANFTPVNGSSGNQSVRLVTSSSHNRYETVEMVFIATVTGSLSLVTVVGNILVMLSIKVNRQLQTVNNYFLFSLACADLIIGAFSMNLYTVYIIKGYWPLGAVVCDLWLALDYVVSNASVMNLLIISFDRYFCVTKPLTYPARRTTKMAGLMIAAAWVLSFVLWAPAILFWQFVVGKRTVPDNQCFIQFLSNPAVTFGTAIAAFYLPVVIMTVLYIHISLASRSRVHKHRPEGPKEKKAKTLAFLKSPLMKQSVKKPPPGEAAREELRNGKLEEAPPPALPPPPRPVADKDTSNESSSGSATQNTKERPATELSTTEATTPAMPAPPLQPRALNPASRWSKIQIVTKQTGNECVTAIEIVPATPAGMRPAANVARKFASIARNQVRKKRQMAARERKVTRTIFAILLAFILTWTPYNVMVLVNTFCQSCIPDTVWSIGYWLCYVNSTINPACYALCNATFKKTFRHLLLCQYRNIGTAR
# [5] = M2 (↓cAMP), preferential response, Table 7
# [6] = M2 (↓cAMP), preferential response
# [7] = M4 (↓cAMP), preferential response, Table 7
# [8] = M4 (↓cAMP), preferential response
SMILES,Ki (M1 muscarinic receptor [1]) [µM],RAi (M1 muscarinic receptor [3]),Δlog(τ/KA) (M1 muscarinic receptor [3]),E′MAX (M1 muscarinic receptor [3]) [fold over basal],τ (M1 muscarinic receptor [3]),Kd (M1 muscarinic receptor [3]) [µM],EC50 (M1 muscarinic receptor [3]) [µM],Emax (M2 muscarinic receptor [4]) [%],τ (M2 muscarinic receptor [4]; [5]),RAi (M2 muscarinic receptor [4]; [6]),Δlog(τ/KA) (M2 muscarinic receptor [4]; [6]),RAi (M3 muscarinic receptor),Δlog(τ/KA) (M3 muscarinic receptor),E′MAX (M3 muscarinic receptor) [fold over basal],τ (M3 muscarinic receptor),Kd (M3 muscarinic receptor) [µM],EC50 (M3 muscarinic receptor) [µM],Emax (M4 muscarinic receptor) [%],τ (M4 muscarinic receptor; [7]),RAi (M4 muscarinic receptor; [8]),further results
"C[N+]1(Cc2ccc(Br)s2)CC=CCC1.[I-] (centres unmarked) [Compound 7C, 1-[(5-bromothiophen-2-yl)methyl]-1-methyl-1,2,3,6-tetrahydropyridin-1-ium iodide]",1.51,0.0024 ± 0.0004,2.62 ± 0.18,1.8 ± 0.2,0.02 ± 0.01,2.51,2.51,38 ± 2,0.76 ± 0.08,0.018 ± 0.002,1.69 ± 0.09,0.0042 ± 0.0005,2.38 ± 0.66,1.6 ± 0.1,0.02 ± 0.01,2.51,2.51,11 ± 1,0.14 ± 0.01,0.0030 ± 0.0003,"Ki (M2 muscarinic receptor [2]; competition with 1 nM [3H]NMS, read-out: Inhibition constants (Ki) as negative logarithms, M2 (converted)): 0.933 µM; Kd (M2 muscarinic receptor [4]; M2 (↓cAMP), preferential response, Table 7, operational model, read-out: pKA (converted)): 3.16 µM; EC50 (M2 muscarinic receptor [4]; M2 (↓cAMP), preferential response, Table 7, read-out: pEC50 (converted)): 1.62 µM; Kd (M4 muscarinic receptor; M4 (↓cAMP), preferential response, Table 7, operational model, read-out: pKA (converted)): 2.51 µM; EC50 (M4 muscarinic receptor; M4 (↓cAMP), preferential response, Table 7, read-out: pEC50 (converted)): 2.4 µM; Δlog(τ/KA) (M4 muscarinic receptor; [8]): 2.26 ± 0.16"
"C[N+]1(Cc2ccc(Cl)s2)CC=CCC1.[I-] (centres unmarked) [Compound 7D, 1-[(5-chlorothiophen-2-yl)methyl]-1-methyl-1,2,3,6-tetrahydropyridin-1-ium iodide]",1.38,0.0165 ± 0.0003,1.78 ± 0.21,7.9 ± 0.8,0.26 ± 0.03,3.98,3.39,40 ± 2,0.83 ± 0.08,0.008 ± 0.001,2.05 ± 0.19,0.0050 ± 0.0006,2.30 ± 0.45,1.8 ± 0.1,0.03 ± 0.01,3.98,3.16,28 ± 1,0.46 ± 0.05,0.0048 ± 0.0005,"Ki (M2 muscarinic receptor [2]; Inhibition constants (Ki) as negative logarithms, M2, competition with 1 nM [3H]NMS): 0.692 µM; Ki (M2 muscarinic receptor [2]; Inhibition constants Ki, at M2 receptors): 0.7 µM; EC50 (M2 muscarinic receptor [4]): 3.89 µM; Kd (M2 muscarinic receptor [4]): 6.31 µM; EC50 (M4 muscarinic receptor): 4.68 µM; Kd (M4 muscarinic receptor): 6.31 µM; Δlog(τ/KA) (M4 muscarinic receptor; [8]): 2.14 ± 0.19"
